Numbers after ± are expanded uncertainties.
Test: xn = mol fraction of the nth substance listed

SMILES: CCOC(C)=O [ethyl acetate] + O=C=O
- mass density (333 K, 5360 kPa, Gas, x2 = 0.1231): 987.7 ± 4.9 kg/m3
- mass density (333 K, 5360 kPa, Liquid, x2 = 0.5727): 865.7 ± 14 kg/m3
- mass density (333 K, 5960 kPa, Gas, x2 = 0.1544): 986 ± 5.1 kg/m3
- mass density (333 K, 5960 kPa, Liquid, x2 = 0.6283): 836.3 ± 17 kg/m3
- mass density (333 K, 6470 kPa, Gas, x2 = 0.1698): 986.1 ± 5.1 kg/m3
- mass density (333 K, 6470 kPa, Liquid, x2 = 0.6584): 814.8 ± 19 kg/m3
- mass density (333 K, 7570 kPa, Gas, x2 = 0.2068): 978.7 ± 5.8 kg/m3
- mass density (333 K, 7570 kPa, Liquid, x2 = 0.7586): 785.3 ± 23 kg/m3
- mass density (333 K, 8460 kPa, Gas, x2 = 0.2731): 973.6 ± 6.4 kg/m3
- mass density (333 K, 8460 kPa, Liquid, x2 = 0.8057): 746.7 ± 27 kg/m3
- mass density (333 K, 8970 kPa, Gas, x2 = 0.3708): 969.6 ± 6.8 kg/m3
- mass density (333 K, 8970 kPa, Liquid, x2 = 0.8421): 720.4 ± 30 kg/m3
- mass density (353 K, 3960 kPa, Gas, x2 = 0.0666): 980.2 ± 5.4 kg/m3
- mass density (353 K, 3960 kPa, Liquid, x2 = 0.5532): 923.2 ± 9.9 kg/m3
- mass density (353 K, 5060 kPa, Gas, x2 = 0.0935): 978.3 ± 5.8 kg/m3
- mass density (353 K, 5060 kPa, Liquid, x2 = 0.5767): 920.9 ± 10 kg/m3
- mass density (353 K, 6270 kPa, Gas, x2 = 0.127): 973.9 ± 6.1 kg/m3
- mass density (353 K, 6270 kPa, Liquid, x2 = 0.6075): 919.6 ± 10 kg/m3
- mass density (353 K, 7470 kPa, Gas, x2 = 0.1822): 967.8 ± 6.8 kg/m3
- mass density (353 K, 7470 kPa, Liquid, x2 = 0.627): 901.7 ± 13 kg/m3
- mass density (353 K, 8470 kPa, Gas, x2 = 0.22): 966.1 ± 7.1 kg/m3
- mass density (353 K, 8470 kPa, Liquid, x2 = 0.6668): 854 ± 18 kg/m3
- mass density (353 K, 9470 kPa, Gas, x2 = 0.2634): 956 ± 8.2 kg/m3
- mass density (353 K, 9470 kPa, Liquid, x2 = 0.7587): 746.5 ± 29 kg/m3
- mass density (373 K, 5690 kPa, Gas, x2 = 0.0819): 964.1 ± 6.9 kg/m3
- mass density (373 K, 5690 kPa, Liquid, x2 = 0.4697): 758.8 ± 23 kg/m3
- mass density (373 K, 6460 kPa, Gas, x2 = 0.1202): 961.2 ± 7.2 kg/m3
- mass density (373 K, 6460 kPa, Liquid, x2 = 0.5001): 784.3 ± 22 kg/m3
- mass density (373 K, 7960 kPa, Gas, x2 = 0.1682): 955.5 ± 8 kg/m3
- mass density (373 K, 7960 kPa, Liquid, x2 = 0.5505): 790.5 ± 23 kg/m3
- mass density (373 K, 9470 kPa, Gas, x2 = 0.2401): 944 ± 9.5 kg/m3
- mass density (373 K, 9470 kPa, Liquid, x2 = 0.6046): 781.7 ± 25 kg/m3
- mass density (373 K, 10570 kPa, Gas, x2 = 0.352): 923.9 ± 12 kg/m3
- mass density (373 K, 10570 kPa, Liquid, x2 = 0.6715): 788.4 ± 26 kg/m3
- mass density (373 K, 11370 kPa, Gas, x2 = 0.4692): 913.5 ± 13 kg/m3
- mass density (373 K, 11370 kPa, Liquid, x2 = 0.7259): 780.3 ± 27 kg/m3
- mass density (393 K, 5060 kPa, Gas, x2 = 0.055): 951.6 ± 7.8 kg/m3
- mass density (393 K, 5060 kPa, Liquid, x2 = 0.455): 713.7 ± 26 kg/m3
- mass density (393 K, 5460 kPa, Gas, x2 = 0.0849): 941.9 ± 8.7 kg/m3
- mass density (393 K, 5460 kPa, Liquid, x2 = 0.4831): 744.8 ± 24 kg/m3
- mass density (393 K, 6970 kPa, Gas, x2 = 0.1218): 932.1 ± 17 kg/m3
- mass density (393 K, 6970 kPa, Liquid, x2 = 0.5129): 771.1 ± 24 kg/m3
- mass density (393 K, 8480 kPa, Gas, x2 = 0.1766): 917.3 ± 12 kg/m3
- mass density (393 K, 8480 kPa, Liquid, x2 = 0.545): 804.3 ± 22 kg/m3
- mass density (393 K, 9970 kPa, Gas, x2 = 0.255): 895.6 ± 14 kg/m3
- mass density (393 K, 9970 kPa, Liquid, x2 = 0.5744): 791.8 ± 25 kg/m3
- mass density (393 K, 11470 kPa, Gas, x2 = 0.4): 856.8 ± 19 kg/m3
- mass density (393 K, 11470 kPa, Liquid, x2 = 0.6237): 755.8 ± 30 kg/m3
- mass density (393 K, 11970 kPa, Gas, x2 = 0.6025): 846.6 ± 21 kg/m3
- mass density (393 K, 11970 kPa, Liquid, x2 = 0.6629): 719.7 ± 35 kg/m3

SMILES: CCOC(=O)CC [ethyl propanoate] + O=C=O
- mass density (313 K, 2960 kPa, Liquid, x2 = 0.5818): 971 ± 6 kg/m3
- mass density (313 K, 3960 kPa, Liquid, x2 = 0.6881): 973.6 ± 6.2 kg/m3
- mass density (313 K, 4460 kPa, Liquid, x2 = 0.7509): 965.9 ± 6.5 kg/m3
- mass density (313 K, 4960 kPa, Liquid, x2 = 0.799): 960.9 ± 7.1 kg/m3
- mass density (313 K, 5460 kPa, Liquid, x2 = 0.8301): 950.9 ± 14 kg/m3
- mass density (313 K, 5970 kPa, Liquid, x2 = 0.8675): 923.3 ± 11 kg/m3
- mass density (313 K, 6270 kPa, Liquid, x2 = 0.8871): 902.4 ± 12 kg/m3
- mass density (333 K, 2960 kPa, Liquid, x2 = 0.4093): 900.2 ± 10 kg/m3
- mass density (333 K, 3460 kPa, Liquid, x2 = 0.4733): 905.3 ± 10 kg/m3
- mass density (333 K, 4460 kPa, Liquid, x2 = 0.5479): 902.9 ± 11 kg/m3
- mass density (333 K, 5460 kPa, Liquid, x2 = 0.6214): 895.5 ± 12 kg/m3
- mass density (333 K, 5960 kPa, Liquid, x2 = 0.6608): 886.6 ± 13 kg/m3
- mass density (333 K, 6660 kPa, Liquid, x2 = 0.7224): 868.7 ± 17 kg/m3
- mass density (333 K, 7260 kPa, Liquid, x2 = 0.7819): 842.2 ± 18 kg/m3
- mass density (353 K, 2960 kPa, Liquid, x2 = 0.3557): 864.4 ± 13 kg/m3
- mass density (353 K, 3860 kPa, Liquid, x2 = 0.4093): 864.9 ± 13 kg/m3
- mass density (353 K, 4960 kPa, Liquid, x2 = 0.4746): 869.1 ± 14 kg/m3
- mass density (353 K, 5960 kPa, Liquid, x2 = 0.5459): 855.1 ± 16 kg/m3
- mass density (353 K, 6960 kPa, Liquid, x2 = 0.6173): 854 ± 16 kg/m3
- mass density (353 K, 7970 kPa, Liquid, x2 = 0.6847): 850.5 ± 22 kg/m3
- mass density (353 K, 8870 kPa, Liquid, x2 = 0.7529): 824.3 ± 20 kg/m3
- mass density (373 K, 2960 kPa, Liquid, x2 = 0.3282): 817 ± 16 kg/m3
- mass density (373 K, 4460 kPa, Liquid, x2 = 0.3961): 812.4 ± 18 kg/m3
- mass density (373 K, 5960 kPa, Liquid, x2 = 0.4965): 802.1 ± 20 kg/m3
- mass density (373 K, 7470 kPa, Liquid, x2 = 0.5422): 788.2 ± 22 kg/m3
- mass density (373 K, 8970 kPa, Liquid, x2 = 0.6332): 766.7 ± 26 kg/m3
- mass density (373 K, 10570 kPa, Liquid, x2 = 0.7127): 735.7 ± 31 kg/m3
- mass density (373 K, 10970 kPa, Liquid, x2 = 0.7391): 720.9 ± 33 kg/m3
